What all share (format): functional
For test [1], the system named is Mus musculus. Briefly: In vivo antitumor activity as percent tumor response at dose of 0.3 mg/kg, 24 hours post injection of SMT-F tumor in DBA/2 mice at day 1-2.
The test system of test [2] is Mus musculus. Kind of test: In vivo antitumor activity as percent tumor response at dose of 0.3 mg/kg, 24 hours post injection of SMT-F tumor in DBA/2 mice at day 30.
Test [3] relates to Mus musculus. Kind of test: In vivo antitumor activity as percent tumor response at dose of 0.3 mg/kg, 24 hours post injection of SMT-F tumor in DBA/2 mice at day 7.
Test [4] deals with Mus musculus. Kind of test: In vivo antitumor activity as percent tumor response at dose of 5.0 mg/kg, 24 hours post injection of SMT-F tumor in DBA/2 mice at day 1-2.
Test [5] relates to Mus musculus. Briefly: In vivo antitumor activity as percent tumor response at dose of 5.0 mg/kg, 24 hours post injection of SMT-F tumor in DBA/2 mice at day 30.
The subject of test [6] is Mus musculus. Briefly: In vivo antitumor activity as percent tumor response at dose of 5.0 mg/kg, 24 hours post injection of SMT-F tumor in DBA/2 mice at day 7.
For test [7], the system named is Mus musculus. Kind of test: In vivo antitumor activity as percent tumor response at dose of 5.0 mg/kg, 3 hours post injection of SMT-F tumor in DBA/2 mice at day 1-2.
For test [8], the system named is Mus musculus. Briefly: In vivo antitumor activity as percent tumor response at dose of 5.0 mg/kg, 3 hours post injection of SMT-F tumor in DBA/2 mice at day 30.
Test [9] concerns Mus musculus. Briefly: In vivo antitumor activity as percent tumor response at dose of 5.0 mg/kg, 3 hours post injection of SMT-F tumor in DBA/2 mice at day 7.
In test [10] the test system is Mus musculus. Briefly: In vivo antitumor activity as percent tumor response at dose of 2.5 mg/kg 3h between injection and light treatment in mice at day 7.
Test [11] relates to Mus musculus. Kind of test: In vivo antitumor activity as percent tumor response at dose of 2.5 mg/kg, 24 hours post injection of SMT-F tumor in DBA/2 mice at day 1-2.
The subject of test [12] is Mus musculus. Briefly: In vivo antitumor activity as percent tumor response at dose of 2.5 mg/kg, 24 hours post injection of SMT-F tumor in DBA/2 mice at day 30.
Test [13] has as its system Mus musculus. Kind of test: In vivo antitumor activity as percent tumor response at dose of 2.5 mg/kg, 24 hours post injection of SMT-F tumor in DBA/2 mice at day 7.
In test [14] the test system is Mus musculus. Kind of test: In vivo antitumor activity as percent tumor response at dose of 2.5 mg/kg, 3 hours post injection of SMT-F tumor in DBA/2 mice at day 1-2.
Test [15] has as its system Mus musculus. Kind of test: In vivo antitumor activity as percent tumor response at dose of 2.5 mg/kg, 3 hours post injection of SMT-F tumor in DBA/2 mice at day 30.
Test [16] relates to Mus musculus. Briefly: In vivo antitumor activity as percent tumor response at dose of 0.3 mg/kg, 3 hours post injection of SMT-F tumor in DBA/2 mice at day 30.
In test [17] the test system is Mus musculus. Kind of test: In vivo antitumor activity as percent tumor response at dose of 0.3 mg/kg, 3 hours post injection of SMT-F tumor in DBA/2 mice at day 7.
In test [18] the test system is Mus musculus. Kind of test: In vivo antitumor activity as percent tumor response at dose of 0.3 mg/kg, 3 hours post injection of SMT-F tumor in DBA/2 mice at day 1-2.
The subject of test [19] is Mus musculus. Briefly: In vivo antitumor activity as percent tumor response at dose of 1.0 mg/kg, 24 hours post injection of SMT-F tumor in DBA/2 mice at day 1-2.
Test [20] concerns Mus musculus. Kind of test: In vivo antitumor activity as percent tumor response at dose of 1.0 mg/kg, 24 hours post injection of SMT-F tumor in DBA/2 mice at day 30.
Test [21] concerns Mus musculus. Kind of test: In vivo antitumor activity as percent tumor response at dose of 1.0 mg/kg, 24 hours post injection of SMT-F tumor in DBA/2 mice at day 7.
Test [22] concerns Mus musculus. Briefly: In vivo antitumor activity as percent tumor response at dose of 0.25 mg/kg, 24 hours post injection of SMT-F tumor in DBA/2 mice at day 1-2.
Test [23] has as its system Mus musculus. Briefly: In vivo antitumor activity as percent tumor response at dose of 0.25 mg/kg, 24 hours post injection of SMT-F tumor in DBA/2 mice at day 30.
Test [24] concerns Mus musculus. Kind of test: In vivo antitumor activity as percent tumor response at dose of 0.25 mg/kg, 24 hours post injection of SMT-F tumor in DBA/2 mice at day 7.

We go through ten compounds from ChEMBL document CHEMBL1150987, “Structure/activity relationships among photosensitizers related to pheophorbides and bacteriopheophorbides” (1992).

Consider `CCCCCCOCC1=C(C)c2cc3nc(c4c5[nH]c(cc6[nH]c(cc1n2)c(C)c6CC)c(C)c5C(=O)C4)[C@@H](CCC(=O)OC)[C@@H]3C`, for which the Response in the test with Mus musculus [1] is reported as 100%; in the test with Mus musculus [2], 0%; in the test on Mus musculus [3], 33%.
For the compound `C=Cc1c(C)c2cc3nc(c4c5nc(cc6[nH]c(cc1[nH]2)c(C)c6CC)C(C)=C5C(=S)C4)[C@@H](CCC(=O)OC)[C@@H]3C`, the Response with Mus musculus [4] amounted to 0%; with Mus musculus [5] it was 0%; with Mus musculus [6], 0%; in the test on Mus musculus [7] it was 100%; in the test with Mus musculus [8] it was 80%; with Mus musculus [9] it was 100%.
With `CCc1c(C)c2cc3[nH]c(cc4nc(c(CC(=O)OC)c5nc(cc1[nH]2)C(C)=C5C(=O)OC)[C@@H](CCC(=O)OC)[C@@H]4C)c(C)c3C=O`, the Response in the test with Mus musculus [4], with Mus musculus [5] and in the test with Mus musculus [6] was 0% throughout.
Take `CCc1c(C)c2cc3[nH]c(cc4nc(c5c6nc(cc1[nH]2)C(C)=C6C(=O)C5)[C@@H](CCC(=O)OC)[C@@H]4C)c(C)c3C=O`: the Response in the test on Mus musculus [10] worked out at 67%; with Mus musculus [11], 0%; in the test on Mus musculus [12] it was 0%; in the test with Mus musculus [13], 0%; with Mus musculus [14], 67%; in the test on Mus musculus [15] it was 0%.
As for `CCCCCCOC(C)c1c(C)c2cc3nc(c4c5nc(cc6[nH]c(cc1[nH]2)[C@@](C)(O)[C@]6(O)CC)C(C)=C5C(=O)C4)[C@@H](CCC(=O)OC)[C@@H]3C` (stereo partly drawn), the Response with Mus musculus [16], in the test with Mus musculus [17] and in the test on Mus musculus [18] was 0% in each case.
In the case of `CCc1c(C)c2cc3[nH]c(cc4nc(c5c6nc(cc1[nH]2)C(C)=C6C(=O)[C@@H]5C(=O)OC)[C@@H](CCC(=O)OC)[C@@H]4C)c(C)c3C=O`, the Response with Mus musculus [4] was 80%; in the test with Mus musculus [5], 0%; in the test with Mus musculus [6] it was 60%.
On to `CCCCCCOC(C)C1=C(C)c2cc3nc(c(CC(=O)OC)c4[nH]c(cc5[nH]c(cc1n2)c(C)c5CC)c(C)c4C(=O)OC)[C@@H](CCC(=O)OC)[C@@H]3C` (stereo partly drawn), for which the Response in the test on Mus musculus [1] is listed as 100%; in the test on Mus musculus [2], 0%; with Mus musculus [19], 100%; in the test on Mus musculus [20], 0%; in the test on Mus musculus [21], 75%; in the test with Mus musculus [3] it was 0%.
Regarding `CCc1c(C)c2cc3nc(c4c5nc(cc6[nH]c(cc1[nH]2)[C@@](C)(O)[C@]6(O)CC)C(C)=C5C(=O)C4)[C@@H](CCC(=O)OC)[C@@H]3C`, the Response in the test on Mus musculus [16], in the test on Mus musculus [17] and with Mus musculus [18] was 0% throughout.
As to `CCCCCCOC(C)C1=C(C)c2cc3nc(c4c5[nH]c(cc6[nH]c(cc1n2)c(C)c6CC)c(C)c5C(=O)[C@@H]4C(=O)OC)[C@@H](CCC(=O)OC)[C@@H]3C` (stereo partly drawn), the Response in the test on Mus musculus [1] came out at 100%; with Mus musculus [2], 0%; in the test on Mus musculus [16] it was 20%; in the test on Mus musculus [17] it was 100%; in the test on Mus musculus [19], 100%; with Mus musculus [20] it was 50%. The figures for the Response in the test on Mus musculus [21], with Mus musculus [3] and in the test with Mus musculus [18] were 100%, 90% and 100%, respectively.
Turning to `CCCCCCOC(C)C1=C(C)c2cc3nc(c4c5[nH]c(cc6[nH]c(cc1n2)c(C)c6CC)c(C)c5C(=O)C4)[C@@H](CCC(=O)OC)[C@@H]3C` (stereo partly drawn), the Response in the test with Mus musculus [22] was determined as 100%; with Mus musculus [23], 35%; in the test with Mus musculus [24], 85%; with Mus musculus [1], 100%; in the test on Mus musculus [2], 50%; in the test with Mus musculus [3], 100%.
